# Results: US8440646B1 (priority 2006, dated 2013)
# Where two headings read alike, the source gives them in different places.
# How the values were obtained:
# protein synthesis = details: cited from earlier work
# E. faecium 494 = assay: microbe, parasite or virus in culture; format: cell-based; details: Enterococcus faecium
# E. faecalis 29212 = assay: microbe, parasite or virus in culture; format: cell-based; details: Enterococcus faecalis
# B. anthracis Vollum1B = assay: microbe, parasite or virus in culture; format: cell-based; details: Bacillus anthracis
# COS-1 = details: African green monkey
# B. anthracis Sterne = assay: microbe, parasite or virus in culture; format: cell-based; details: Bacillus anthracis
# B. anthracis Ame = assay: microbe, parasite or virus in culture; format: cell-based; details: Bacillus anthracis
# B. anthracis V770 = assay: microbe, parasite or virus in culture; format: cell-based; details: Bacillus anthracis
# S. aureus MRSA5 = assay: microbe, parasite or virus in culture; format: cell-based; details: Staphylococcus aureus
# S. pneumoniae 700905 [1] = assay: microbe, parasite or virus in culture; format: cell-based; details: Streptococcus pneumoniae
# CHO-K1 = details: Chinese hamster
# S. pneumoniae 157E [2] = assay: animal or person; format: in vivo, mice; details: Streptococcus pneumoniae, 157E, in Mus musculus, 48 h, read-out: % survival; for responders at 5 mg/kg: sc
# S. pneumoniae PBS1339 = test system: S. pneumoniae PBS1339; parameters: species or system mice; details: mouse, in vivo
# S. pneumoniae 700905 [3] = test system: S. pneumoniae 700905; parameters: species or system mice; details: mouse, in vivo
# S. pneumoniae 157E [4] = test system: S. pneumoniae 157E; parameters: species or system mice; details: mouse, in vivo
# 16S rRNA = details: cited from earlier work
# S. aureus RN450 = assay: microbe, parasite or virus in culture; format: cell-based; details: Staphylococcus aureus
# [5] = test system: Protein synthesis of S. aureus RN450; assay: microbe, parasite or virus in culture; format: cell-based; details: for IC50 / IC90: Staphylococcus aureus; for IC50: read-out: Protein synthesis IC50; for IC90: read-out: Protein synthesis IC90
# [6] = test system: Peptidoglycan synthesis of S. aureus RN450; assay: microbe, parasite or virus in culture; format: cell-based; details: Staphylococcus aureus; for IC50: read-out: Peptidoglycan synthesis IC50; for IC90: read-out: Peptidoglycan synthesis IC90
# B. cereus 97/4144 = assay: microbe, parasite or virus in culture; format: cell-based; details: Bacillus cereus
# B. cereus 95/3032 = assay: microbe, parasite or virus in culture; format: cell-based; details: Bacillus cereus
# B. cereus 98/2658 = assay: microbe, parasite or virus in culture; format: cell-based; details: Bacillus cereus
# B. cereus 98/2620 = assay: microbe, parasite or virus in culture; format: cell-based; details: Bacillus cereus
# S. pneumoniae 157E [7] = assay: microbe, parasite or virus in culture; format: cell-based; details: Streptococcus pneumoniae
# S. aureus RN4250 = assay: microbe, parasite or virus in culture; format: cell-based; details: for MIC: Staphylococcus aureus, RN4250
SMILES,MIC (E. faecium 494),MIC (E. faecalis 29212),MIC (B. anthracis Vollum1B),Tox50 (COS-1),MIC (B. anthracis Sterne),MIC (B. anthracis Ame),MIC (B. anthracis V770),MIC (S. aureus MRSA5),MIC (S. pneumoniae 700905 [1]),Tox50 (CHO-K1),MIC (B. cereus 97/4144),MIC (B. cereus 95/3032),MIC (B. cereus 98/2658),MIC (B. cereus 98/2620),other results
Cc1c2c(c(O)c3c(O)ccc(Cl)c13)C(=O)C1(O)C(=O)C(C(N)=O)=C(O)C(N(C)C)C1C2 (stereo not drawn) [4-epi-anhydrochlorotet],–,–,–,–,–,–,–,–,–,–,–,–,–,–,inhibition of protein synthesis in words (protein synthesis): weak effects
CC(C)c1cc(CN2CC=CCC2)c(O)c2c1C[C@H]1C[C@H]3[C@H](N(C)C)C(O)=C(C(N)=O)C(=O)[C@@]3(O)C(O)=C1C2=O [AF],0.25 µg/mL,0.13 µg/mL,< 0.03 µg/mL,>100 µg/mL,< 0.03 µg/mL,< 0.03 µg/mL,0.06 µg/mL,0.13 µg/mL,0.06 µg/mL,>100 µg/mL,–,–,–,–,–
CN(C)c1cc(CN2Cc3ccccc3C2)c(O)c2c1C[C@H]1C[C@H]3[C@H](N(C)C)C(O)=C(C(N)=O)C(=O)[C@@]3(O)C(O)=C1C2=O [AI],0.5 µg/mL,0.5 µg/mL,< 0.03 µg/mL,>100 µg/mL,< 0.03 µg/mL,0.06 µg/mL,0.12 µg/mL,0.5 µg/mL,0.06 µg/mL,>100 µg/mL,–,–,–,–,responders at 10 mg/kg (S. pneumoniae 157E [2]; po): 0%; responders at 5 mg/kg (S. pneumoniae 157E [2]): 40%
CN(C)c1cc(CN2CCC3CCCCC3C2)c(O)c2c1C[C@H]1C[C@H]3[C@H](N(C)C)C(O)=C(C(N)=O)C(=O)[C@@]3(O)C(O)=C1C2=O (some centres unmarked) [AJ],0.5 µg/mL,0.5 µg/mL,< 0.03 µg/mL,>100 µg/mL,< 0.03 µg/mL,< 0.03 µg/mL,< 0.03 µg/mL,0.5 µg/mL,0.06 µg/mL,>100 µg/mL,–,–,–,–,responders at 50 mg/kg (S. pneumoniae 157E [2]; po): 80%; responders at 5 mg/kg (S. pneumoniae 157E [2]): 100%
COc1ccc(-c2cc(CNC(C)CF)c(O)c3c2C[C@H]2C[C@H]4[C@H](N(C)C)C(O)=C(C(N)=O)C(=O)[C@@]4(O)C(O)=C2C3=O)cn1 (some centres unmarked) [AM],0.25 µg/mL,0.13 µg/mL,0.06 µg/mL,>100 µg/mL,0.06 µg/mL,0.06 µg/mL,0.12 µg/mL,0.25 µg/mL,0.06 µg/mL,92.85 µg/mL,–,–,–,–,responders at 50 mg/kg (S. pneumoniae 157E [2]; po): 0%; responders at 5 mg/kg (S. pneumoniae 157E [2]): 100%
"CC1(C)S[C@@H]2[C@H](NC(=O)[C@H](N)c3ccccc3)C(=O)N2[C@H]1C(=O)O [Ampicillin, reference compound]",–,–,–,–,–,–,–,–,–,–,–,–,–,–,PD50 (S. pneumoniae PBS1339; po): 3.2 mg/kg; PD50 (S. pneumoniae 700905 [3]; iv): 43.7 mg/kg; PD50 (S. pneumoniae 700905 [3]; po): >50 mg/kg; PD50 (S. pneumoniae 157E [4]; iv): 0.6 mg/kg; PD50 (S. pneumoniae 157E [4]; po): 1.1 mg/kg
"Cc1c2c(c(O)c3c(O)cccc13)C(=O)[C@]1(O)C(=O)C(C(N)=O)=C(O)[C@@H](N(C)C)[C@@H]1C2 [Anhydro-tetracycline, anhydrotetracycline, reference compound]",–,–,–,–,–,–,–,–,–,–,–,–,–,–,effect on reactivity of nucleotides within the 16S rRNA (chemical footprint) (16S rRNA): A similar effect was not seen; inhibition of protein synthesis in words (protein synthesis): weak effects; MIC (S. aureus RN450): 2 µg/mL; IC50 [5]: < 0.03 µg/mL; IC90 [5]: < 0.03 µg/mL; IC50 [6]: 19.2 µg/mL; IC90 [6]: > 32 µg/mL
CO/N=C(\C(=O)N[C@@H]1C(=O)N2C(C(=O)O)=C(COC(C)=O)CS[C@H]12)c1csc(N)n1 [Cefotaxime],–,–,–,–,–,–,–,–,–,–,32 µg/mL,> 64 µg/mL,> 64 µg/mL,64 µg/mL,–
"O=C(O)c1cn(C2CC2)c2cc(N3CCNCC3)c(F)cc2c1=O [Ciprofloxacin, reference compound]",–,–,0.25 µg/mL,–,0.25 µg/mL,0.25 µg/mL,0.12 µg/mL,–,–,–,–,–,–,–,PD50 (S. pneumoniae 700905 [3]; po): >50 mg/kg; PD50 (S. pneumoniae 157E [4]; iv): >50 mg/kg
CCC[C@@H]1C[C@@H](C(=O)N[C@@H]([C@H]2O[C@H](SC)[C@H](O)[C@@H](O)[C@H]2O)[C@H](C)Cl)N(C)C1 [Clindamycin],–,–,–,–,–,–,–,–,–,–,0.5 µg/mL,0.5 µg/mL,0.5 µg/mL,0.25 µg/mL,–
CN(C)c1cc(CN2CCC(F)(F)CC2)c(O)c2c1C[C@H]1C[C@H]3[C@H](N(C)C)C(O)=C(C(N)=O)C(=O)[C@@]3(O)C(O)=C1C2=O [Compound H],0.5 µg/mL,0.5 µg/mL,< 0.03 µg/mL,>100 µg/mL,< 0.03 µg/mL,< 0.03 µg/mL,< 0.03 µg/mL,0.35 µg/mL,0.06 µg/mL,>100 µg/mL,–,–,–,–,efficacy in model of lung infection in words (S. pneumoniae PBS1339): efficacious; PD50 (S. pneumoniae PBS1339; iv): <5.0 mg/kg; PD50 (S. pneumoniae PBS1339; po): 3.6 mg/kg; PD50 (S. pneumoniae 700905 [3]; iv): 2.2 mg/kg; PD50 (S. pneumoniae 700905 [3]; po): 12.7 mg/kg; IV and PO efficacy in words (S. pneumoniae 157E [4]): exhibits IV and PO efficacy; PD50 (S. pneumoniae 157E [4]; iv): 1.1 mg/kg; PD50 (S. pneumoniae 157E [4]; po): 5 mg/kg; oral activity in words (S. pneumoniae 157E [4]; po): exhibited oral activity
CC[C@H]1OC(=O)[C@H](C)[C@@H](O[C@H]2C[C@@](C)(OC)[C@@H](O)[C@H](C)O2)[C@H](C)[C@@H](O[C@@H]2O[C@H](C)C[C@H](N(C)C)[C@H]2O)[C@](C)(O)C[C@@H](C)C(=O)[C@H](C)[C@@H](O)[C@]1(C)O [Erythromycin],–,–,–,–,–,–,–,–,–,–,0.125 µg/mL,0.125 µg/mL,1 µg/mL,0.06 µg/mL,–
"CN(C)c1ccc(O)c2c1C[C@H]1C[C@H]3[C@H](N(C)C)C(O)=C(C(N)=O)C(=O)[C@@]3(O)C(O)=C1C2=O [Minocycline, reference compound]",16 µg/mL,4 µg/mL,–,–,–,–,–,2 µg/mL,8 µg/mL,–,0.5 µg/mL,≤ 0.06 µg/mL,≤ 0.06 µg/mL,0.5 µg/mL,PD50 (S. pneumoniae PBS1339; iv): 4.5 mg/kg; PD50 (S. pneumoniae PBS1339; po): 3.6 mg/kg; effect on reactivity of nucleotides within the 16S rRNA (chemical footprint) (16S rRNA): affect the reactivity of nucleotides; inhibition of protein synthesis in words (protein synthesis): potent inhibitors of protein synthesis; MIC (S. pneumoniae 157E [7]): 0.06 µg/mL; MIC (S. aureus RN450): 0.25 µg/mL; IC50 [5]: < 0.03 µg/mL; IC90 [5]: 0.1 µg/mL; PD50 (S. pneumoniae 700905 [3]; iv): >50 mg/kg; PD50 (S. pneumoniae 700905 [3]; po): >50 mg/kg; PD50 (S. pneumoniae 157E [4]; iv): 0.53 mg/kg; PD50 (S. pneumoniae 157E [4]; po): 1.5 mg/kg; IC50 [6]: 4.6 µg/mL; IC90 [6]: 20.9 µg/mL; susceptibility in words (S. aureus RN4250): susceptible; MIC (S. aureus RN4250): 0.5 µg/mL
"CN(C)C1C(O)=C(C(N)=O)C(=O)C2(O)C(O)=C3C(=O)c4c(O)cccc4C(C)(O)C3CC12 (centres unmarked) [Tetracycline, reference compound]",64 µg/mL,16 µg/mL,–,–,–,–,–,32 µg/mL,32 µg/mL,–,64 µg/mL,≤ 0.06 µg/mL,≤ 0.06 µg/mL,32 µg/mL,effect on reactivity of nucleotides within the 16S rRNA (chemical footprint) (16S rRNA): affect the reactivity of nucleotides; inhibition of protein synthesis in words (protein synthesis): potent inhibitors of protein synthesis; MIC (S. pneumoniae 157E [7]): 0.06 µg/mL; MIC (S. aureus RN450): 0.06 µg/mL; IC50 [5]: < 0.03 µg/mL; IC90 [5]: 0.11 µg/mL; IC50 [6]: > 32 µg/mL; IC90 [6]: > 32 µg/mL; susceptibility in words (S. aureus RN4250): resistant; MIC (S. aureus RN4250): 64 µg/mL
"CN(C)c1cc(NC(=O)CNC(C)(C)C)c(O)c2c1C[C@H]1C[C@H]3[C@H](N(C)C)C(O)=C(C(N)=O)C(=O)[C@@]3(O)C(O)=C1C2=O [Tigecycline, reference compound]",–,–,–,–,–,–,–,–,–,–,–,–,–,–,effect on reactivity of nucleotides within the 16S rRNA (chemical footprint) (16S rRNA): chemical footprint similar to that of tetracycline; MIC (S. aureus RN450): 2 µg/mL; macromolecular synthesis profile in words [5]: profile similar to class I compounds; IC50 [5]: 0.12 µg/mL; IC90 [5]: 0.68 µg/mL; IC50 [6]: > 32 µg/mL; IC90 [6]: > 32 µg/mL
CN[C@H](CC(C)C)C(=O)N[C@H]1C(=O)N[C@@H](CC(N)=O)C(=O)N[C@H]2C(=O)N[C@H]3C(=O)N[C@H](C(=O)N[C@H](C(=O)O)c4cc(O)cc(O)c4-c4cc3ccc4O)[C@H](O)c3ccc(c(Cl)c3)Oc3cc2cc(c3O[C@@H]2O[C@H](CO)[C@@H](O)[C@H](O)[C@H]2O[C@H]2C[C@](C)(N)[C@H](O)[C@H](C)O2)Oc2ccc(cc2Cl)[C@H]1O [Vancomycin],–,–,–,–,–,–,–,–,–,–,1 µg/mL,1 µg/mL,2 µg/mL,1 µg/mL,–
